Assay results reported in US20260102400A1, “PHARMACEUTICAL COMPOSITION FOR DISRUPTING TUMOR BLOOD VESSELS” (SAMSUNG MEDICAL FOUNDATION, priority 2022, published 2026).
Entries after “also recorded” stand apart in the source; their conditions may differ.

Experiments:
[1] = system: human gastric cancer cells; experiment: Human gastric cancer xenograft, alkaline 5-FU injected adjacent to tumor; assay type: in vivo, nude mice; settings: 5 mg 5-FU pH 8.4, adjacent to tumor, three times at one-week intervals; P<0.05
Protocol: The animals used in the experiment were six male nude mice (Crj: BALB/c-nu/nu mice, male) aged five weeks and weighing approximately 30 grams, purchased from Orient. The mice were subjected to a one-week acclimation period in the laboratory before use. Each nude mouse was subcutaneously xenografted with 5×10^6 human gastric cancer cells suspended in 100 μL of PBS on the dorsal subcutaneous layer. The tumor size was periodically measured, and when it reached a diameter of 1 cm, the drug administration experiment was conducted.
The experimental animals were divided into two groups. One group served as the control group, receiving only physiological saline, while the other group was administered 5 mg of 5-FU at pH 8.4. The drug was injected 0.2 cc adjacent to the tumor three times at one-week intervals. After one month, the major and minor axes of the tumors growing on the dorsal epidermis were measured.

[2] = system: HUVECs; settings: various concentrations of L-NMMA, FIG. 11
Protocol: HUVECs were seeded at a density of 5×10^3 cells/well in a 96-well plate and incubated for 24 hours. Subsequently, the cells were incubated in DMEM medium containing various concentrations of L-NMMA for 24 hours. The cells were then washed twice with PBS, followed by the addition of 100 μL of fresh growth DMEM medium, and incubated for an additional 48 hours. The medium was replaced with 100 μL of fresh growth DMEM medium, after which 20 μL of 3-(4,5-dimethylthiazol-2-yl)-5-(3-carboxymethoxyphenyl)-2-(4-sulfophenyl)-2H-tetrazolium (MTS) was added. After an additional 2-hour incubation, absorbance at 490 nm was measured using a BIO-RAD Model 680 microplate reader (Spark, TECAN, CA, USA).

[3] = system: human gastric cancer cells; experiment: Human gastric cancer xenograft, bevacizumab; assay type: in vivo, nude mice
Protocol: The animals used in the experiment were three male nude mice (Crj: BALB/c-nu/nu, male), each weighing approximately 30 g and five weeks old, produced by Orient. The mice underwent a one-week acclimatization period in the laboratory before use. Human gastric cancer cells (5×10^6 cells/100 μL in PBS) were xenografted into the subcutaneous fat layer on the dorsal side of each nude mouse. The tumor size was measured periodically, and drug administration was initiated when the tumor reached a diameter of 1 cm.
The experimental animals were administered 1 mg of bevacizumab by injecting 0.2 cc adjacent to the tumor three times at one-week intervals.

[4] = system: TSP-1 protein; experiment: Western blot of TSP-1 protein expression in HUVEC; assay type: cell-based, human; settings: HUVECs; prolonged exposure and higher 5-FU concentrations; FIG. 3
Protocol: Western blot analysis was conducted to confirm the expression of TSP-1 protein in the HUVEC (human umbilical vein endothelial cell) cell line.
HUVECs cultured in petri dishes were lysed using a buffer containing 50 mM Tris (pH 8.0), 150 mM NaCl, 1% Nonidet P-40, 0.5% sodium deoxycholate (SDC), 0.1% sodium dodecyl sulfate (SDS), and 1× protease inhibitor cocktail. The lysates were incubated on ice for 30 minutes, followed by centrifugation at 14,000 g for 10 minutes to collect the supernatant.
Protein quantification was performed using a bicinchoninic acid (BCA) protein assay kit (Pierce Chemical, Rockford, IL, USA). A total of 30 μg of protein was subjected to electrophoresis on a 10% SDS-polyacrylamide gel and subsequently transferred onto a nitrocellulose membrane. The membrane was blocked with blocking milk for 1 hour, then incubated with the same TSP-1 antibody used for immunostaining at room temperature for 1 hour. After three washes with Tris buffer containing 0.1% Tween 20 at 15-minute intervals, the membrane was incubated with a secondary antibody specific to the primary antibody at room temperature for 1 hour. The detection was carried out using a chemiluminescent substrate (Amersham Life Science, Arlington Heights, IL, USA).
Protein extracted from HUVECs was used as a positive control.

[5] = Pathological changes in subcutaneous muscle layer after injection (H&E); assay type: in vivo, nude mice; set-up: key: 0=absent; 1=mild; 2=moderate; 3=severe; settings: 5 mg pH 8.4 5-FU near the tumor; 24 hours; degeneration, necrosis, inflammation, fibrosis
Protocol: To observe pathological changes in the surrounding tissue after injecting 5 mg of pH 8.4 5-FU near the tumor, the drug was locally administered to nude mice. After 24 hours, tissues, including muscle layers, were collected and subjected to H&E staining to examine degeneration, necrosis, inflammation, and fibrosis in the muscle layer. The extent of each pathological change was scored as follows: 0=absent, 1=mild, 2=moderate, 3=severe, and the results are shown in FIG. 10A and FIG. 10B. FIG. 10A presents observations at 40× magnification, while FIG. 10B presents observations at 100× magnification.

[6] = system: HUVECs; experiment: LDH release assay in HUVECs; assay type: cell-based, human; settings: 1 mM, 5 mM and 10 mM 5-FU, P<0.05, FIG. 4
Protocol: To investigate whether the administration of 5-fluorouracil (5-FU) enhances apoptosis in endothelial cells, an LDH release assay was conducted in human umbilical vein endothelial cells (HUVECs). Cytotoxicity was assessed based on the amount of lactate dehydrogenase (LDH) released due to cell membrane damage. The released LDH was quantified using an LDH assay kit (EZ-LDH1000; DoGenBio, Seoul, Korea) according to the manufacturer's protocol.
HUVECs (5×10^4 cells/well) were seeded in a 96-well polystyrene plate and incubated at 37° C. for 24 hours. LDH substrate was added to each well, followed by an additional incubation at 37° C. for 10 minutes. The plate was centrifuged at 600 g for 5 minutes. A 10-μL aliquot of the supernatant was transferred from the culture plate wells to an analysis plate. Subsequently, 100 μL of LDH reaction mixture reagent was added to the supernatant in each well of the analysis plate. After a 30-minute reaction, absorbance was measured at 450 nm using a microplate reader (Model 680; Bio-Rad). The cytotoxicity of 5-FU on HUVECs was determined based on the amount of LDH released.

[7] = system: VEGF; experiment: VEGF immunohistochemical staining of gastric tumor mass after local injection; settings: one week after injection
[8] = system: HUVECs; experiment: MTS cell proliferation assay, 5-FU at different pH; assay type: cell-based, human; settings: 5 μM 5-FU, pH 6.4, 7.4, 8.4, 9.0, FIG. 5
Protocol: To evaluate the cytotoxic effect of 5-fluorouracil (5-FU) in human umbilical vein endothelial cells (HUVECs) under different pH conditions, an MTS cell proliferation assay was performed. The cytotoxicity of 5 μM 5-FU at various pH levels in HUVECs was assessed using the CellTiter 96 AQueous One Solution Cell Proliferation Assay (Promega Corp., Madison, WI, USA).
HUVECs were seeded in a 96-well plate at a density of 5×10^3 cells/well and incubated for 24 hours. Subsequently, the cells were cultured for an additional 24 hours in Dulbecco's Modified Eagle's Medium (DMEM) containing 5-FU at different pH conditions (pH 6.4, 7.4, 8.4, and 9.0). Following the incubation, the cells were washed twice with phosphate-buffered saline (PBS), after which 100 μL of fresh DMEM growth medium was added, followed by an additional 48-hour incubation. The medium was then replaced with 100 μL of fresh DMEM growth medium, and 20 μL of 3-(4,5-dimethylthiazol-2-yl)-5-(3-carboxymethoxyphenyl)-2-(4-sulfophenyl)-2H-tetrazolium (MTS) solution (Promega Corp., Madison, WI, USA) was added. After an additional 2-hour incubation, the absorbance was measured at 490 nm using a microplate reader (Model 680, BIO-RAD; Spark, TECAN, CA, USA).

[9] = system: CD31; experiment: CD31 immunohistochemical staining of gastric tumor mass after local injection; settings: one week after injection
[10] = 5 mg 5-FU at base of tumor, relative to total tissue area

O=c1[nH]cc(F)c(=O)[nH]1 [alkaline 5-FU, 5-fluorouracil]
tumor size compared to control group that received PBS [1]: reduced | tumor size four weeks after drug administration compared to before injection [1]: decreased

CNC(=N)NCCC[C@H](N)C(=O)O [L-NMMA, NG-Monomethyl-L-arginine]
cell viability, L-NMMA alone [2]: reduction in cell viability

bevacizumab: recombinant humanized monoclonal antibody designed to inhibit vascular endothelial growth factor (VEGF)
tumor size four weeks after drug administration compared to before injection ([3]; 1 mg bevacizumab adjacent to tumor, three times at one-week intervals, P>0.05): remained nearly unchanged | tumor size in later follow-up ([3]; 1 mg bevacizumab, months after the four-week reading): did not change for the following two months and began to increase in the third month

O=c1[nH]cc(F)c(=O)[nH]1 [5-FU, 5-fluorouracil]
TSP-1 expression [4]: increased | pathological changes in subcutaneous muscle layer at injection site (score) [5]: 0 | amount of LDH released [6]: increased in a time-dependent manner | Immunopositive area (VEGF) ([7]; 5 mg 5-FU at base of tumor): 46077.917 μm^2 | Immuno-positive area (%) (VEGF) [7, 10]: 0.10% | stained area of VEGF compared to control group ([7]; 5 mg 5-FU): smaller | cytotoxic effect according to pH [8]: significantly greater toxicity under alkaline conditions compared to neutral or acidic 5-FU | Immunopositive area (CD31) ([9]; 5 mg 5-FU at base of tumor): 257079.525 μm^2 | Immuno-positive area (%) (CD31) [9, 10]: 0.54% | stained area (ratio) of CD31 compared to control group ([9]; 5 mg 5-FU): lower; also recorded: smaller | distribution of necrotic tissue compared to control group ([9]; 5 mg 5-FU, tumor mass): increased
